Source: patent publication US12077503B2, “Substituted cyclic amides and their use as herbicides” (FMC CORPORATION, priority 2015, dated 2024)

Tests used:
Type in all cases: in vivo
[1] = tested on: pigweed (Amaranthus retroflexus); assay: Test A preemergence; conditions: Amaranthus retroflexus, pre-emergence, 240 h, preemergence, 0 to 100 scale where 0 is no effect and 100 is complete control, read-out: Pigweed plant response rating
[2] = tested on: giant foxtail (Setaria faberii); assay: Test A preemergence; conditions: Setaria faberi, pre-emergence, 240 h, preemergence, 0 to 100 scale where 0 is no effect and 100 is complete control, read-out: Foxtail, Giant plant response rating
How it was run: (§1)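 Preemergence soil spray on seeded pots or post-emergence spray on 1–2 leaf plants, in loam–sand blend. Greenhouse ~10 d. Visual rating 0–100 against untreated plants.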

[3] = tested on: barnyardgrass (Echinochloa crus-galli); assay: Test A preemergence; conditions: Echinochloa crus-galli, pre-emergence, 240 h, preemergence, 0 to 100 scale where 0 is no effect and 100 is complete control, read-out: Barnyardgrass plant response rating
How it was run: as §1

[4] = tested on: ryegrass, Italian (Italian ryegrass, Lolium multiflorum); assay: Test A preemergence; conditions: Lolium multiflorum, pre-emergence, 240 h, preemergence, 0 to 100 scale where 0 is no effect and 100 is complete control, read-out: Ryegrass, Italian plant response rating
How it was run: as §1

[5] = tested on: ragweed (common ragweed, Ambrosia elatior); assay: Test A preemergence; conditions: Ambrosia artemisiifolia, pre-emergence, 240 h, preemergence, 0 to 100 scale where 0 is no effect and 100 is complete control, read-out: Ragweed plant response rating
How it was run: as §1

Kochia (Kochia scoparia) [6] = assay: Test A preemergence; conditions: Bassia scoparia, pre-emergence, 240 h, preemergence, 0 to 100 scale where 0 is no effect and 100 is complete control, read-out: Kochia plant response rating
How it was run: as §1

corn (Zea mays) = assay: Test A postemergence; conditions: Zea mays, post-emergence, 240 h, postemergence, read-out: Corn plant response rating
How it was run: as §1

[7] = tested on: wheat (Triticum aestivum); assay: Test A postemergence; conditions: Triticum aestivum, post-emergence, 240 h, postemergence, read-out: Wheat plant response rating
How it was run: as §1

[8] = tested on: pigweed (Amaranthus retroflexus); assay: Test A postemergence; conditions: Amaranthus retroflexus, post-emergence, 240 h, postemergence, read-out: Pigweed plant response rating
How it was run: as §1

[9] = tested on: giant foxtail (Setaria faberii); assay: Test A postemergence; conditions: Setaria faberi, post-emergence, 240 h, postemergence, read-out: Foxtail, Giant plant response rating
How it was run: as §1

[10] = tested on: barnyardgrass (Echinochloa crus-galli); assay: Test A postemergence; conditions: Echinochloa crus-galli, post-emergence, 240 h, postemergence, read-out: Barnyardgrass plant response rating
How it was run: as §1

[11] = tested on: ryegrass, Italian (Italian ryegrass, Lolium multiflorum); assay: Test A postemergence; conditions: Lolium multiflorum, post-emergence, 240 h, postemergence, read-out: Ryegrass, Italian plant response rating
How it was run: as §1

[12] = tested on: ragweed (common ragweed, Ambrosia elatior); assay: Test A postemergence; conditions: Ambrosia artemisiifolia, post-emergence, 240 h, postemergence, read-out: Ragweed plant response rating
How it was run: as §1

[13] = tested on: Galium (catchweed bedstraw, Galium aparine); assay: Test A postemergence; conditions: Galium, post-emergence, 240 h, postemergence, read-out: Galium plant response rating
How it was run: as §1

Kochia (Kochia scoparia) [14] = assay: Test A postemergence; conditions: Bassia scoparia, post-emergence, 240 h, postemergence, read-out: Kochia plant response rating
How it was run: as §1

[15] = 125 g ai/ha, visual injury on 0 to 100 scale (0 no effect, 100 complete control), approx. 10 d
[16] = 500 g ai/ha, 0 to 100 scale, 0 is no effect, 100 is complete control

CN1CC(c2cccc(O)c2)C(C(=O)Nc2cccc(F)c2F)C1=O (stereo not drawn) [Compound 1130]
pest or weed control at 125 g/ha ([1]; 125 g ai/ha, approx. 10 d): 0%
pest or weed control at 500 g/ha ([1]; 500 g ai/ha): 0%
pest or weed control at 125 g/ha ([2]; 125 g ai/ha, approx. 10 d): 0%
pest or weed control at 500 g/ha ([2]; 500 g ai/ha): 30%
pest or weed control at 125 g/ha ([3]; 125 g ai/ha, approx. 10 d): 0%
pest or weed control at 500 g/ha ([3]; 500 g ai/ha): 0%
pest or weed control at 125 g/ha ([4]; 125 g ai/ha, approx. 10 d): 0%
pest or weed control at 500 g/ha ([4]; 500 g ai/ha): 0%
pest or weed control at 125 g/ha ([5]; 125 g ai/ha, approx. 10 d): 0%
pest or weed control at 500 g/ha ([5]; 500 g ai/ha): 0%
pest or weed control at 125 g/ha (Kochia (Kochia scoparia) [6]; 125 g ai/ha, approx. 10 d): 0%
pest or weed control at 500 g/ha (Kochia (Kochia scoparia) [6]; 500 g ai/ha): 0%
plant injury at 125 g/ha (corn (Zea mays); [15]): 0%
plant injury at 500 g/ha (corn (Zea mays); [16]): 0%
plant injury at 125 g/ha [7, 15]: 0%
plant injury at 500 g/ha [7, 16]: 0%
pest or weed control at 125 g/ha [8, 15]: 0%
pest or weed control at 500 g/ha [8, 16]: 0%
pest or weed control at 125 g/ha [9, 15]: 0%
pest or weed control at 500 g/ha [9, 16]: 30%
pest or weed control at 125 g/ha [10, 15]: 0%
pest or weed control at 500 g/ha [10, 16]: 20%
pest or weed control at 125 g/ha [11, 15]: 0%
pest or weed control at 500 g/ha [11, 16]: 0%
pest or weed control at 125 g/ha [12, 15]: 0%
pest or weed control at 500 g/ha [12, 16]: 0%
pest or weed control at 125 g/ha [13, 15]: 0%
pest or weed control at 500 g/ha [13, 16]: 0%
pest or weed control at 125 g/ha (Kochia (Kochia scoparia) [14]; [15]): 0%
pest or weed control at 500 g/ha (Kochia (Kochia scoparia) [14]; [16]): 0%
